Laboratory results taken from patent US20050282743A1, “Molecular interactions in cells” (Arbor Vita Corporation, priority 2001, published 2005).
Each block holds one molecule with its values, some of them ahead of it. Ends that are not written are not given here. Peptide text beside a SMILES is read from it. * marks the point of attachment. Biotin = O=C1N[C@H]2[C@H](CS[C@H]2CCCCC(=O)*)N1

Tests used:
[1] = molecular target: T1, PDZ protein (GST-PDZ fusion) (Homo sapiens, UniProt Q02410); assay: G' assay (10 uM PL peptide), results of TABLE 7 and TABLE 12; assay type: binding
T1 construct: made in house; host or cells: E. coli (DH5alpha, BL21 or JM109)
T1 sequence (Q02410 1-837): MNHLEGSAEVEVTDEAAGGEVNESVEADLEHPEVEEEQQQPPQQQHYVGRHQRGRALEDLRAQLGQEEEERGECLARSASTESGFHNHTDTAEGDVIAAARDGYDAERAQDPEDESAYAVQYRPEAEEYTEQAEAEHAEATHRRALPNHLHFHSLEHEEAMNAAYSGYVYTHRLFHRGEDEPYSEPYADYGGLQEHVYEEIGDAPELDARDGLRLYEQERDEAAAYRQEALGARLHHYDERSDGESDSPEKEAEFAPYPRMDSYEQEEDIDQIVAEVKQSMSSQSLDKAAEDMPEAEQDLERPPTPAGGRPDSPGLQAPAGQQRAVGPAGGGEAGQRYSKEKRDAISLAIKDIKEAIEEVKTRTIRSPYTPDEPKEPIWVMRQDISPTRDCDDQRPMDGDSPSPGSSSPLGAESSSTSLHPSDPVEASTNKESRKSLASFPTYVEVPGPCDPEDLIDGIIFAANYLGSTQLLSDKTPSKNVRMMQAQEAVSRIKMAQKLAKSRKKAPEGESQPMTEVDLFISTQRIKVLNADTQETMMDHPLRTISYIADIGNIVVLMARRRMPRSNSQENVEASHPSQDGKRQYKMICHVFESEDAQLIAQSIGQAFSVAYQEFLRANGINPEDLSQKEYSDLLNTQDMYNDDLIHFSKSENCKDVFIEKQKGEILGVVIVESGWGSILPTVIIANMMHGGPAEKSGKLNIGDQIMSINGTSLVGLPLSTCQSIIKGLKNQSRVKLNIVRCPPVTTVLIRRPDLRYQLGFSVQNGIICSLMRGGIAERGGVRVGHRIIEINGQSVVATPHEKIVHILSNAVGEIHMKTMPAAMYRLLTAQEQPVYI
In short: (§1)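 Same steps as the G-zero format, apart from a peptide concentration of 10 uM in place of 20 uM in step 2. Amino-terminally biotinylated PL peptides bind GST-PDZ fusions, and retained peptide is quantified by 450 nm absorbance.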

[2] = tested on: PDZ protein (GST-PDZ fusion); assay: as above; assay type: binding
In short: as §1

Classification ([1]; PDZ Mint 1, PDZ Domain 1, 2): 1 (A450 nm 0-1)
Molecule: CKR5_HUMAN (ERASSVYTRSTGEQEISVGL)

Molecule: CC[C@H](C)[C@H](NC(=O)[C@H](CC(=O)O)NC(=O)[C@H](CCC(=O)O)NC(=O)[C@H](CCCNC(=N)N)NC(=O)[C@@H](NC(=O)CCCC[C@@H]1SC[C@@H]2NC(=O)N[C@@H]21)[C@@H](C)O)C(=O)N[C@@H](Cc1ccc(O)cc1)C(=O)N[C@H](C(=O)N[C@@H](CC(N)=O)C(=O)N[C@@H](Cc1ccc(O)cc1)C(=O)N1CCC[C@H]1C(=O)N[C@H](C(=O)N[C@@H](Cc1ccccc1)C(=O)N[C@@H](CO)C(=O)N[C@@H](CCCNC(=N)N)C(=O)N[C@@H](CCCNC(=N)N)C(=O)N1CCC[C@H]1C(=O)N[C@@H](CCCCN)C(=O)N[C@H](C(=O)N[C@@H](CCCNC(=N)N)C(=O)N[C@H](C(=O)O)C(C)C)[C@@H](C)O)[C@@H](C)O)C(C)C [DNAM-1] (Biotin-TREDIYVNYPTFSRRPKTRV-OH; C-terminus assumed)
Classification ([2]; PDZ BAI-1, PDZ Domain 2): 5 (A450 nm of 4 more than 2× repeated)

Classification ([1]; PDZ Mint 1, PDZ Domain 2): 2 (A450 nm 1-2)
Molecule: VHDAESSDEDGYDWGPATDL (Biotin-VHDAESSDEDGYDWGPATDL) [zona occludens 3 (ZO-3)]
Classification ([2]; PDZ BAI-1, PDZ Domain 6): 2 (A450 nm 1-2)
Classification ([2]; PDZ Novel PDZ, PDZ Domain 1): 1 (A450 nm 0-1)
Classification ([2]; PDZ SHANK, PDZ Domain 1): 1 (A450 nm 0-1)

Molecule: ARHRVTSYTSSSVNVSSNL (Biotin-ARHRVTSYTSSSVNVSSNL) [IL-8RB]
Classification ([2]; PDZ BAI-1, PDZ Domain 2): 1 (A450 nm 0-1)
Classification ([2]; PDZ BAI-1, PDZ Domain 6): 1 (A450 nm 0-1)
Classification ([2]; PDZ Novel PDZ, PDZ Domain 2): 1 (A450 nm 0-1)

Classification ([1]; PDZ Mint 1, PDZ Domain 1, 2): 2 (A450 nm 1-2)
Classification ([1]; PDZ Mint 1, PDZ Domain 2): 2 (A450 nm 1-2)
Molecule: KTMPAATYRLLTGQEQPVYL (Biotin-KTMPAATYRLLTGQEQPVYL) [MINT-3]
Classification ([2]; PDZ LIM Protein, PDZ Domain 1): 1 (A450 nm 0-1)

Classification ([1]; PDZ Mint 1, PDZ Domain 1, 2): 1 (A450 nm 0-1)
Molecule: RNIEEVYVGGKQVVPFSSSV (Biotin-RNIEEVYVGGKQVVPFSSSV) [Nedasin (s-form)]
Classification ([2]; PDZ BAI-1, PDZ Domain 2): 1 (A450 nm 0-1)
Classification ([2]; PDZ BAI-1, PDZ Domain 6): 1 (A450 nm 0-1)

Molecule: QATSRNGHSARQHVVADTEL (Biotin-QATSRNGHSARQHVVADTEL) [CD34]
Classification ([2]; PDZ BAI-1, PDZ Domain 6): 1 (A450 nm 0-1)
Classification ([2]; PDZ SHANK, PDZ Domain 1): 1 (A450 nm 0-1)

Molecule: APC—adenomatous polyposis coli protein (ESSGTQSPKRHSGSYLVTSV)
Classification ([2]; PDZ BAI-1, PDZ Domain 2): 1 (A450 nm 0-1)
Classification ([2]; PDZ BAI-1, PDZ Domain 5): 1 (A450 nm 0-1)
Classification ([2]; PDZ FLJ 00011, PDZ Domain 1): 1 (A450 nm 0-1)

Molecule: CC(C)C[C@H](NC(=O)[C@H](C)NC(=O)[C@@H](NC(=O)[C@H](CCC(=O)O)NC(=O)[C@H](CCCNC(=N)N)NC(=O)[C@H](CCCNC(=N)N)NC(=O)CNC(=O)[C@H](CCC(N)=O)NC(=O)[C@H](CC(C)C)NC(=O)[C@H](CCCNC(=N)N)NC(=O)CNC(=O)CNC(=O)[C@H](CCCNC(=N)N)NC(=O)[C@H](C)NC(=O)[C@H](CO)NC(=O)[C@H](CCCNC(=N)N)NC(=O)CNC(=O)CNC(=O)[C@H](C)NC(=O)[C@H](C)NC(=O)CCCC[C@@H]1SC[C@@H]2NC(=O)N[C@@H]21)[C@@H](C)O)C(=O)O [HPV E6 33 (modified)] (Biotin-AAGGRSARGGRLQGRRETAL-OH; C-terminus assumed)
Classification ([2]; PDZ BAI-1, PDZ Domain 2): 5 (A450 nm of 4 more than 2× repeated)
Classification ([2]; PDZ BAI-1, PDZ Domain 5): 1 (A450 nm 0-1)
Classification ([2]; PDZ BAI-1, PDZ Domain 6): 1 (A450 nm 0-1)
Classification ([2]; PDZ FLJ 00011, PDZ Domain 1): 1 (A450 nm 0-1)
Classification ([2]; PDZ SHANK, PDZ Domain 1): 4 (A450 nm 3-4)
Classification ([1]; PDZ Mint 1, PDZ Domain 2): 1 (A450 nm 0-1)

Molecule: CC[C@H](C)[C@H](NC(=O)[C@H](CO)NC(=O)[C@H](CCC(=O)O)NC(=O)[C@H](Cc1ccc(O)cc1)NC(=O)[C@H](CC(=O)O)NC(=O)[C@H](CC(N)=O)NC(=O)[C@H](CCC(=O)O)NC(=O)[C@H](CCCCN)NC(=O)CCCC[C@@H]1SC[C@@H]2NC(=O)N[C@@H]21)C(=O)N[C@@H](CO)C(=O)N[C@@H](CC(=O)O)C(=O)N[C@@H](CC(C)C)C(=O)N[C@@H](CCC(N)=O)C(=O)N[C@@H](CCC(N)=O)C(=O)NCC(=O)N[C@@H](CCCNC(=N)N)C(=O)N[C@@H](CC(=O)O)C(=O)N[C@H](C(=O)N[C@H](C(=O)N[C@@H](CCCNC(=N)N)C(=O)N[C@@H](CC(C)C)C(=O)O)[C@@H](C)O)[C@@H](C)CC [PAG] (Biotin-KENDYESISDLQQGRDITRL-OH; C-terminus assumed)
Classification ([2]; PDZ FLJ 00011, PDZ Domain 1): 3 (A450 nm 2-3)
Classification ([2]; PDZ SHANK, PDZ Domain 1): 4 (A450 nm 3-4)

Classification ([1]; PDZ Mint 1, PDZ Domain 1, 2): 1 (A450 nm 0-1)
Classification ([1]; PDZ Mint 1, PDZ Domain 2): 1 (A450 nm 0-1)
Molecule: TQGFPGPATWRRISSLESEV
Classification ([2]; PDZ BAI-1, PDZ Domain 2): 4 (A450 nm 3-4)
Classification ([2]; PDZ BAI-1, PDZ Domain 3): 1 (A450 nm 0-1)
Classification ([2]; PDZ BAI-1, PDZ Domain 4): 3 (A450 nm 2-3)
Classification ([2]; PDZ BAI-1, PDZ Domain 5): 4 (A450 nm 3-4)
Classification ([2]; PDZ BAI-1, PDZ Domain 6): 2 (A450 nm 1-2)
Classification ([2]; PDZ FLJ00011 (also printed FLJ 00011), PDZ Domain 1): 2 (A450 nm 1-2)
Classification ([2]; PDZ FLJ 11215, PDZ Domain 1): 1 (A450 nm 0-1)

Molecule: CC(C)C[C@H](NC(=O)[C@H](CCCNC(=N)N)NC(=O)CNC(=O)CNC(=O)[C@H](CCCNC(=N)N)NC(=O)[C@H](C)NC(=O)[C@@H]1CCCN1C(=O)[C@H](CCCNC(=N)N)NC(=O)CNC(=O)CNC(=O)[C@@H](NC(=O)[C@H](C)NC(=O)CCCC[C@@H]1SC[C@@H]2NC(=O)N[C@@H]21)C(C)C)C(=O)N[C@@H](CCC(N)=O)C(=O)NCC(=O)N[C@@H](CCCNC(=N)N)C(=O)N[C@@H](CCCNC(=N)N)C(=O)N[C@@H](CCC(N)=O)C(=O)N[C@H](C(=O)N[C@@H](CCC(N)=O)C(=O)N[C@H](C(=O)O)C(C)C)[C@@H](C)O [HPV E6 58 (modified)] (Biotin-AVGGRPARGGRLQGRRQTQV-OH; C-terminus assumed)
Classification ([2]; PDZ BAI-1, PDZ Domain 2): 5 (A450 nm of 4 more than 2× repeated)
Classification ([2]; PDZ BAI-1, PDZ Domain 3): 2 (A450 nm 1-2)
Classification ([2]; PDZ BAI-1, PDZ Domain 4): 2 (A450 nm 1-2)
Classification ([2]; PDZ BAI-1, PDZ Domain 5): 2 (A450 nm 1-2)
Classification ([1]; PDZ Mint 1, PDZ Domain 2): 1 (A450 nm 0-1)

Molecule: CC[C@H](C)[C@H](NC(=O)[C@H](CO)NC(=O)[C@@H](NC(=O)[C@H](Cc1ccccc1)NC(=O)[C@H](CO)NC(=O)CCCC[C@@H]1SC[C@@H]2NC(=O)N[C@@H]21)[C@@H](C)O)C(=O)N[C@@H](CC(C)C)C(=O)N[C@H](C(=O)N[C@@H](CS)C(=O)N[C@@H](Cc1c[nH]cn1)C(=O)N[C@@H](CCC(N)=O)C(=O)N[C@@H](CCCNC(=N)N)C(=O)N[C@@H](CCCNC(=N)N)C(=O)N[C@H](C(=O)N[C@@H](CCC(N)=O)C(=O)N[C@@H](CCCNC(=N)N)C(=O)N[C@@H](CCCCN)C(=O)N[C@@H](CCC(=O)O)C(=O)N[C@H](C(=O)N[C@H](C(=O)N[C@@H](C)C(=O)O)C(C)C)[C@@H](C)O)[C@@H](C)O)[C@@H](C)O [GluR5-2 (rat)]
Classification ([2]; PDZ BAI-1, PDZ Domain 2): 5 (A450 nm of 4 more than 2× repeated)

Molecule: CC[C@H](C)[C@H](NC(=O)[C@H](Cc1c[nH]cn1)NC(=O)[C@H](C)NC(=O)[C@H](C)NC(=O)[C@H](CO)NC(=O)[C@@H]1CCCN1C(=O)[C@H](CCCNC(=N)N)NC(=O)[C@H](CC(=O)O)NC(=O)[C@H](CCCCN)NC(=O)[C@@H]1CCCN1C(=O)[C@H](CC(=O)O)NC(=O)[C@H](CCC(=O)O)NC(=O)CCCC[C@@H]1SC[C@@H]2NC(=O)N[C@@H]21)C(=O)N[C@H](C(=O)N[C@@H](CCC(=O)O)C(=O)N[C@@H](C)C(=O)N[C@@H](CC(C)C)C(=O)N[C@@H](CCC(=O)O)C(=O)N[C@H](C(=O)N[C@@H](CC(=O)O)C(=O)N[C@H](C(=O)O)C(C)C)[C@@H](C)O)C(C)C [PDZ-binding kinase (PBK)] (Biotin-EDPKDRPSAAHIVEALETDV-OH; C-terminus assumed)
Classification ([2]; PDZ BAI-1, PDZ Domain 3): 1 (A450 nm 0-1)

Classification ([1]; PDZ Mint 1, PDZ Domain 2): 3 (A450 nm 2-3)
Molecule: A2AC_HUMAN (Modified) (Biotin-DFRPSFKHILFRRARRGFRQ; not fully specified)
